Experimental data reported in patent publication US8367698B2, “3-substituted sulfonyl piperidine derivative” (MSD K.K., priority 2008, dated 2013).

The compounds below were run against T1, human LCE (Homo sapiens, UniProt Q9H5J4) (assay: LCE enzymatic activity inhibition test). Details: palmitoyl-CoA and [14C]-malonyl-CoA substrate, 37° C. for 90 minutes, pH 6.5.
T1 sequence (Q9H5J4 1-265): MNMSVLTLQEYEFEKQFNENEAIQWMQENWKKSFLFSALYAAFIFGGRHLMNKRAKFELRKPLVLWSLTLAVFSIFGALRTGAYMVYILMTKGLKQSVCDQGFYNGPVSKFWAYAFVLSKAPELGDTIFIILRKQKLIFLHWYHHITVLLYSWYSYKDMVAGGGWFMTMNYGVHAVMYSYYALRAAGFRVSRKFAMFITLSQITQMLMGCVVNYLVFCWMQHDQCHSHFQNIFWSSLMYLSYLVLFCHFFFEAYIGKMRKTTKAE
Assay type: biochemical
Procedure: A test compound was dissolved in dimethylsulfoxide (DMSO) at 10 mM, and then, the resulting solution was further diluted with DMSO to prepare a 1000-fold stock solution having a concentration 1000 times higher than the concentration to be evaluated. An LCE enzymatic activity inhibition test was carried out by a modified method of Moon (J. Biol. Chem., Vol. 276, pp. 45358-45366, (2001)) et al. That is, the diluted test compound was added to a 96-well assay plate (Corning, 96-Well Assay Block) in an amount of 1.0 μL per well, and thereafter, 50 μL of a phosphate buffer solution (a 100 mM potassium phosphate buffer solution (pH 6.5)), 25 μL of a substrate solution (a 100 mM potassium phosphate buffer solution (pH 6.5), 4.0 μM rotenone, 80 μM fatty acid-free bovine serum albumin, 160 μM palmitoyl-CoA, 80 μM malonyl-CoA, 3.5 μM [^14C]-malonyl-CoA (1.92 GBq/mmol, manufactured by Amersham, Inc.)) was added to each well, and further, 25 μL of an enzyme solution (a 100 mM potassium phosphate buffer solution (pH 6.5), 100 μg/mL human LCE) was added thereto. Then, the upper part of the plate was hermetically closed with a seal member, and the plate was incubated at 37° C. for 90 minutes while gently shaking and stirring. Thereafter, to each well, 100 μL of 5 N HCl was added and the assay plate was stirred at room temperature for 5 minutes, whereby the enzymatic reaction was stopped and also acyl-CoA was hydrolyzed. Thereafter, the enzymatic reaction solution in each well was adsorbed to each well of a 96-well GF/C filter plate (PerkinElmer, Unifilter 96GF/C) through which water had been passed in advance, and then, each well was washed with water to remove unadsorbed malonyl-CoA and the GF/C filter plate was dried at 50° C. for 60 minutes. Thereafter, to each well, 30 μL of a scintillator (PerkinElmer, Microscinti 0) was added and the upper part of the plate was sealed, and the radioactivity of the fixed [^14C] was measured using a microplate scintillation counter (PerkinElmer, Top Count) from which the enzymatic activity was determined. The human LCE enzyme inhibitory activity of the test compound was calculated using the radioactivity obtained from a well to which DMSO containing no test compound is added as a control.
Work on `CC(C)Oc1ccc(C(=O)NCC2(c3ccccc3)CCCN(S(=O)(=O)c3ccccn3)C2)cc1` (stereo not drawn) [Example 73, 4-Isopropoxy-N-{[3-phenyl-1-(pyridin-2-ylsulfonyl)piperidin-3-yl]methyl}benzamide] yielded an IC50 of 3.7 nM.
For `CCCS(=O)(=O)N1CCCC(CNC(=O)c2ccc(OC(C)C)cn2)(c2ccccc2)C1` (stereo not drawn) [Example 76, 5-Isopropoxy-N-{[3-phenyl-1-(propylsulfonyl)piperidin-3-yl]methyl}pyridine-2-carboxamide], the IC50 was 44 nM.
With `CCC1(CNC(=O)c2ccc(OC(C)C)cc2)CCCN(S(=O)(=O)c2cn(C)cn2)C1` (stereo not drawn) [Example 86, N-({3-Ethyl-1-[(1-methyl-1H-imidazol-4-yl)sulfonyl]piperidin-3-yl}methyl)-4-isopropoxybenzamide] the IC50 was 284 nM.
`CC(C)Oc1ccc(NC(=O)[C@@H]2C[C@@H]3CC[C@H]2N(S(=O)(=O)c2cn(C)cn2)C3)cc1` (relative stereo) [Example 26, (1R*,4S*,6R*)-N-(4-Isopropoxyphenyl)-2-[(1-methyl-1H-imidazol-4-yl)sulfonyl]-2-azabicyclo[2.2.2]octane-6-carboxamide] showed an IC50 of 268 nM.
Compound `CC(C)Oc1ccc(C(=O)NCC2(C)CCCN(S(=O)(=O)c3ccccc3)C2)cc1` (stereo not drawn) [Example 81, 4-Isopropoxy-N-{[3-methyl-1-(phenylsulfonyl)piperidin-3-yl]methyl}benzamide] has an IC50 of 51 nM.
`CC(C)Oc1ccc(C(=O)NCC2(c3ccccc3)CCCN(S(=O)(=O)c3cn(C)cn3)C2)nc1` (stereo not drawn) [Example 79, 5-Isopropoxy-N-({1-[(1-methyl-1H-imidazol-4-yl)sulfonyl]-3-phenylpiperidin-3-yl}methyl)pyridine-2-carboxamide] was tested, and the IC50 was 49 nM.
With `CC(C)Oc1ccc(NC(=O)[C@@H]2C[C@@H]3CC[C@H]2N(S(=O)(=O)c2cn(C)cn2)C3)nc1` (relative stereo) [Example 48, (1R*,4S*,6R*)-N-(5-isopropoxypyridin-2-yl)-2-[(1-methyl-1H-imidazol-4-yl)sulfonyl]-2-azabicyclo[2.2.2]octane-6-carboxamide] the IC50 was 159 nM.
`CC(C)Oc1ccc(C(=O)NCC2(C)CCCN(S(=O)(=O)c3ccccn3)C2)cc1` (stereo not drawn) [Example 82, 4-Isopropoxy-N-{[3-methyl-1-(pyridin-2-ylsulfonyl)piperidin-3-yl]methyl}benzamide] showed an IC50 of 60 nM.
`CCC1(CNC(=O)c2ccc(OC(C)C)cc2)CCCN(S(=O)(=O)c2ccccn2)C1` (stereo not drawn) [Example 85, N-{[3-Ethyl-1-(pyridin-2-ylsulfonyl)piperidin-3-yl]methyl}-4-isopropoxybenzamide] was tested, and the IC50 was 14 nM.
In the case of `CC(C)Oc1ccc(C(=O)NCC2(c3ccccc3)CCCN(S(=O)(=O)c3cn(C)cn3)C2)cc1` (stereo not drawn) [Example 74, 4-Isopropoxy-N-({1-[(1-methyl-1H-imidazol-4-yl)sulfonyl]-3-phenylpiperidin-3-yl}methyl)benzamide], the IC50 is reported as 17.4 nM.
With `CCCCS(=O)(=O)N1C[C@H]2CC[C@@H]1[C@H](C(=O)Nc1cc(C3CC3)n[nH]1)C2` (relative stereo) [Example 42, (1R*,4S*,6R*)-2-(Butylsulfonyl)-N-(3-cyclopropyl-1H-pyrazol-5-yl)-2-azabicyclo[2.2.2]octane-6-carboxamide] the IC50 was 155 nM.
Work on `CCC1(C(=O)Nc2ccc(OC(C)C)cn2)CCCN(S(=O)(=O)c2cn(C)cn2)C1` (stereo not drawn) [Example 103, 3-Ethyl-N-(5-isopropoxypyridin-2-yl)-1-[(1-methyl-1H-imidazol-4-yl)sulfonyl]piperidine-3-carboxamide] yielded an IC50 of 35 nM.
`COc1ccccc1C(=O)NCC1(c2ccccc2)CCCN(S(=O)(=O)c2ccccn2)C1` (stereo not drawn) [Example 64, 2-Methoxy-N-{[3-phenyl-1-(pyridin-2-ylsulfonyl)piperidin-3-yl]methyl}benzamide] was tested, and the IC50 was 20 nM.
With `CCC1(C(=O)Nc2cc(OC(C)C)[nH]n2)CCCN(S(=O)(=O)c2cn(C)cn2)C1` (stereo not drawn) [Example 104, 3-Ethyl-N-(5-isopropoxy-1H-pyrazol-3-yl)-1-[(1-methyl-1H-imidazol-4-yl)sulfonyl]piperidine-3-carboxamide] the IC50 was 38 nM.
`CC(C)Oc1ccc(C(=O)NCC2(c3ccccc3)CCCN(S(=O)(=O)c3ccccn3)C2)nc1` (stereo not drawn) [Example 78, 5-Isopropoxy-N-{[3-phenyl-1-(pyridin-2-ylsulfonyl)piperidin-3-yl]methyl}pyridine-2-carboxamide] gave an IC50 of 14 nM.
`CC(C)Cc1cc(C(=O)NCC2(c3ccccc3)CCCN(S(=O)(=O)c3cn(C)cn3)C2)[nH]n1` (stereo not drawn) [Example 98, 3-Isobutyl-N-({1-[(1-methyl-1H-imidazol-4-yl)sulfonyl]-3-phenylpiperidin-3-yl}methyl)-1H-pyrazole-5-carboxamide] was tested, and the IC50 was 12 nM.
For `CC(C)Oc1cc(NC(=O)[C@@H]2C[C@@H]3CC[C@H]2N(S(=O)(=O)c2cn(C)cn2)C3)n[nH]1` (relative stereo) [Example 105, (1R*,4S*,6R*)-N-(5-Isopropoxy-1H-pyrazol-3-yl)-2-[(1-methyl-1H-imidazol-4-yl)sulfonyl]-2-azabicyclo[2.2.2]octane-6-carboxamide], the IC50 was 132 nM.
For `CC(C)Oc1ccc(NC(=O)[C@@H]2C[C@@H]3CC[C@H]2N(S(=O)(=O)c2ccccn2)C3)nc1` (relative stereo) [Example 47, (1R*,4S*,6R*)-N-(5-Isopropoxypyridin-2-yl)-2-(pyridin-2-ylsulfonyl)-2-azabicyclo[2.2.2]octane-6-carboxamide], the IC50 was 19 nM.
